# Reference: PubChem BioAssay (NCI)
# Where “and” joins values, the source holds several entries; their conditions need not be identical. Identical values can stand only once.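 Briefly, cells in 96-well plates were exposed to five compound concentrations for 48 h, and endpoints were estimated by linear interpolation. Here, GI50 denotes the concentration required for 50% inhibition of growth. TGI marks complete inhibition of growth.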
# Assays:
# Assay in all cases: NCI tumour cell line growth inhibition, 48 h
# [1] = tested on: DU-145 prostate
# [2] = tested on: MOLT-4 leukemia
# [3] = tested on: NCI-H226 lung
# [4] = tested on: SF-268 CNS
# [5] = tested on: SF-539 CNS
# [6] = tested on: SN12C renal
# [7] = tested on: SNB-19 CNS
# [8] = tested on: SNB-75 CNS
# [9] = tested on: SR leukemia
# [10] = tested on: UO-31 renal
SMILES,GI50 [1] [µM],TGI [1] [µM],GI50 [2],TGI [2],GI50 [3] [µM],TGI [3] [µM],GI50 [4] [µM],TGI [4] [µM],GI50 [5] [µM],TGI [5],GI50 [6] [µM],TGI [6] [µM],GI50 [7],TGI [7] [µM],GI50 [8] [µM],TGI [8] [µM],GI50 [9],TGI [9],GI50 [10],TGI [10]
Cc1cc(O)c(C2=NN(c3ccc(S(N)(=O)=O)cc3)C(/C=C/c3ccccc3)C2)cc1Cl (stereo unspecified),14.1,38.6,17.7 µM,73.7 µM,5.21,19.2,5.63,19.5,2.98,14 µM,11.1,25.6,7.84 µM,19.9,3.39,16.1,12.7 µM,33.8 µM,15.2 µM,34.9 µM
CC1OC(CC(=O)O)CC2=C1C(=O)c1c(O)cccc1C2=O (stereo unspecified),–,2.5,–,0.115 µM,–,3.13,–,1.33,–,2.43 µM,–,0.716,–,2.98,–,2.86,–,0.159 µM,–,1.07 µM
Cc1ccc(-n2nnnc2-c2cnc(N3CCOCC3)nc2-c2cccc(C(F)(F)F)c2)cc1,1.62,16.9,2.18 µM,> 10.4 µM,1.51,10.8,3,29.4,1.16,2.72 µM,2.53,> 13.9,2.21 µM,> 32.8,1.6,3.98,1.13 µM,3.17 µM,1.14 µM,–
O=C(CCCN1CCC(C(O)c2ccc(F)cc2)CC1)c1ccc(F)cc1 (stereo unspecified),–,118,–,142 µM,–,111,–,122,–,113 µM,–,141,–,114,–,98.5,–,201 µM,–,79.3 µM
COc1cc(Cl)cc(-c2nn(-c3cccc(NC(=O)Nc4ccc(Cl)c(Cl)c4)c3)cc2-c2ccncc2)c1,3.85,> 100,1.69 µM,6.13 µM,3.06,> 100,3.27,> 100,2.6,13.2 µM,3.1,> 100,3.51 µM,> 100,2.11,48.6,1.54 µM,5.8 µM,1.89 µM,18.2 µM
CC1(C)O[C@@H]2C[C@H]3[C@@H]4C[C@H](F)C5=CC(=O)C=C[C@]5(C)[C@@]4(F)[C@@H](O)C[C@]3(C)[C@]2(C(=O)CO)O1,–,> 100,–,> 100 µM,–,> 100,–,> 100,–,> 100 µM,–,> 100,–,> 100,–,> 100,–,> 100 µM,–,> 100 µM
COC1CC(N)C(O)C(C)O1 (stereo unspecified),–,> 100,–,> 100 µM,–,> 100,–,> 100,–,> 100 µM,–,> 100,–,> 100,–,> 100,–,> 100 µM,–,> 100 µM
Cc1ccc(C2NC(=O)c3ccccc3N2)c(C)c1 (stereo unspecified),–,> 100,–,> 100 µM,–,47.8,–,> 100,–,5.15 µM,–,> 86.5,–,> 40.8,–,6.8,–,> 71.8 µM,–,> 100 µM
CC(=O)OC1=CC2(OC(C)=O)CC(C)(C)C1C1C(=O)C=CC(=O)C12 (stereo unspecified),–,> 100,–,> 100 µM,–,> 100,–,> 100,–,> 71 µM,–,> 80.5,–,> 100,–,> 100,–,> 100 µM,–,> 100 µM
COc1cc(C)c2sc3ccccc3c(=O)c2c1NCCN(C)C,7,20,2.58 µM,6.81 µM,2.3,6.81,8.57,22.3,4.73,17.4 µM,5.41,20,12.9 µM,27.2,2.21,13.2,2.79 µM,7.91 µM,3.46 µM,16.1 µM
CC1=Nc2c([nH]c(=S)[nH]c2=O)NC(c2c(Cl)cccc2Cl)C1 (stereo unspecified),–,3.51,–,5.43 µM,–,15,–,3.96,–,4.2 µM,–,3.09,–,6.37,–,10.6,–,1.68 µM,–,10.2 µM
CC1(C)Cc2c(Br)c(Br)c(Br)c(OCC(O)CN3CCN(c4ccccn4)CC3)c2O1 (stereo unspecified),14.4,30.6,3.19 µM,19 µM,15.3,38.2,12.9,39.6,13.6,29.2 µM,14.4,28.4,20.8 µM,49.6,16.3,39,4.38 µM,24.7 µM,11 µM,24 µM
CN(C)c1cccc(F)c1C(=O)NC(=O)Nc1ccc(Cl)cc1,–,> 100,–,> 100 µM,–,> 100,–,> 100,–,> 100 µM,–,> 100,–,> 100,–,9.12,–,> 100 µM,–,> 100 µM
COCCOCCOCc1n(Cc2ccc3ccccc3n2)c2ccccc2[n+]1Cc1ccc2ccccc2n1,2.67,41.8,1.88 µM,13 µM,2.44,18.4,0.903,16.2,0.852,13.6 µM,0.306,11.1,0.444 µM,13.5,0.317,4.3,0.663 µM,11.8 µM,12.1 µM,36.2 µM
NC1(Cc2ccc(Cl)cc2)CCN(c2ncnc3[nH]ccc23)CC1,9.37,25.1,1.91 µM,17.3 µM,6.96,25.1,6.66,21.3,2.21,12.6 µM,4.4,28.8,5.33 µM,21.3,0.437,4.37,4.2 µM,31.4 µM,1.54 µM,13 µM
O=C(CC1C=Cc2ccccc2N1C(=O)c1ccccc1)c1ccccc1 (stereo unspecified),–,> 100,–,34.6 µM,–,99.9,–,> 100,–,66.7 µM,–,45.9,–,> 100,–,> 100,–,35.4 µM,–,> 100 µM
CN(CCCCCl)P(=O)(OCc1ccc([N+](=O)[O-])o1)OCC1OC(n2cnc([N+](=O)[O-])c2N)C(O)C1O (stereo unspecified),> 100,> 100,> 100 µM,> 100 µM,> 100,> 100,> 100,> 100,> 100,> 100 µM,> 100,> 100,> 100 µM,> 100,> 100,> 100,0.924 µM,> 100 µM,> 100 µM,> 100 µM
Cc1cccc2c3c(sc12)C(c1ccc(F)cc1)C(C#N)=C(N)O3 (stereo unspecified),0.151,13,0.137 µM,26.6 µM,0.239,3.9,0.35,17.5,0.0473,0.679 µM,0.159,11.7,0.081 µM,12.2,0.0236,0.0936,0.0462 µM,20.2 µM,0.286 µM,15.5 µM
NC(=O)c1sc(-n2cnc3cc(C(F)(F)F)ccc32)cc1OCc1ccccc1Br,> 25,> 25,> 25 µM,> 25 µM,> 17.2,> 25,> 17.5,> 25,24.9,> 25 µM,24.6,> 25,> 19.1 µM,> 25,8.72,> 18.8,> 21.2 µM,> 25 µM,> 25 µM,> 25 µM
CCSC[C@@H]1C[C@](O)(c2ccc(F)cc2)[C@@H](c2ccc(F)cc2)O1,15.1,28.4,3.21 µM,11.1 µM,17.8,38.8,14.7,29.6,17,31.1 µM,17.9,33.3,16.6 µM,31.1,16.3,31.1,12.9 µM,30 µM,17 µM,32.9 µM
CC(=O)O[C@H]1CC[C@@]2(C)C(=C/C(=N/OCCN3CCCC3)[C@H]3[C@@H]4CC[C@H](OC(C)=O)[C@@]4(C)CC[C@@H]32)C1,> 100,> 100,29.6 µM,84.3 µM,> 100,> 100,> 100,> 100,> 100,> 100 µM,> 100,> 100,69.1 µM,> 100,68,> 100,10.4 µM,44.1 µM,20.8 µM,53.3 µM
CN(C)c1ccc(/C=N/S(=O)(=O)c2ccc(-n3c(-c4ccccc4)nc4c(Br)cc(Br)cc4c3=O)cc2)cc1,32.6,> 90.2,33.3 µM,> 80.5 µM,53.8,> 100,48.5,> 100,44.4,> 91.8 µM,43.4,> 100,51.2 µM,> 100,24.7,71.3,1 µM,14.9 µM,32.6 µM,> 100 µM
C[C@@H](CO)NC(=O)c1cc(-c2ccc(Cl)cc2)nn(-c2cnn(C)c2)c1=O,29.6,> 100,15.9 µM,91.5 µM,16.4,35.1,25.6,> 100,16,48.3 µM,19.3,> 100,26.4 µM,> 100,16.7,78.1,18.2 µM,> 100 µM,7.79 µM,57.4 µM
CCc1nc(N)nc(N)c1-c1ccc(Cl)c(N=[N+]=[N-])c1,–,> 100,2.82 µM and 6.62 µM,26.8 µM and 71.1 µM,–,> 100,–,> 100,–,> 39.9 µM and 65.3 µM,–,> 100,5.09 µM and 19.5 µM,> 100,–,> 87.3,1.3 µM and 2.68 µM,19.2 µM and 43.9 µM,5.8 µM and 14.6 µM,88 µM and > 100 µM
COc1ccc(CCN2CCC(CN(C)Cc3cnn(-c4ccccc4)c3)CC2)cc1,37,> 100,12.8 µM,66.7 µM,32.5,> 100,14.2,34.7,2.77,8.08 µM,21.3,> 100,21.2 µM,66,8.83,21.2,3.92 µM,25.2 µM,3.37 µM,16.2 µM
CN(CCC(=O)/C(=C\c1ccccc1)c1ccc(Cl)cc1)Cc1ccccc1,2.35,6.78,1.49 µM,6.88 µM,2.44,5.53,2.76,10,2.74,6.88 µM,2.38,6.39,3.92 µM,19.1,10.2,31.8,0.521 µM,5.81 µM,1.74 µM,3.63 µM
CC(=O)Nc1n[n+]([O-])c2cc(C)ccc2[n+]1[O-],–,18.4,–,> 100 µM,–,27.8,–,19.7,–,5.36 µM,–,18.8,–,23.3,–,12,–,> 100 µM,–,17.2 µM
COc1cc2c(c(OC)c1OC)-c1ccc(N=NC(N)=S)c(=O)cc1[C@@H](NC(C)=O)CC2,0.655,4.66,1.3 µM,> 100 µM,2.01,> 29.4,0.716,> 100,0.311,–,1.52,> 100,0.578 µM,> 100,0.256,–,0.408 µM,> 100 µM,6.92 µM,> 100 µM
